From patent US20250228854A1, “HETEROCYCLIC SUBSTITUTED PYRIMIDOPYRAN COMPOUNDS AND THEIR APPLICATIONS” (priority 2023, published 2025)
Where a name gives a salt, the structure may show the parent alone.

Key:
[1] = system: p-ERK of KRAS^G12D mutant AsPC-1 cells; experiment: AsPC-1 cell p-ERK inhibition test (HTRF), Experimental Example 1; assay type: cell-based; settings: Homo sapiens, ASPC1, 3 hours compound incubation
Description: Experimental Example 1. AsPC-1 Cell p-ERK Inhibition Test
The inhibitory activity of the compound on p-ERK levels of KRAS^G12D-mutant pancreatic cancer AsPC-1 cells was assessed by HTRF.
ASPC-1 cells were purchased from ATCC; RPMI-1640 medium was purchased from Gibco; Fetal Bovine Serum was purchased from Hyclone; Advanced Phospho-ERK1/2 (THR202/TYR204) KIT was purchased from Bioauxilium—
ASPC-1 cells were seeded in a 384-well cell culture plate with a white bottom, 8 μL of cell suspension per well, containing 7,500 cells per well, and the cell plates were placed in a carbon dioxide incubator and incubated at 37° C. overnight;
The test compound was diluted to 3 mM with 100% DMSO as the first concentration, and then diluted to ten concentrations of 3000, 1000, 300, 100, 30, 10, 3, 1, 0.3, 0.1 μM with a pipette. Take 2 μL of compound and add 198 μL of cell starvation medium. After mixing well, take 15 μL of compound solution and add 35 μL of cell starvation medium and mix well. Then add 4 μL of compound solution in each well to the corresponding cell plate well. Place the cell plate back in the carbon dioxide incubator for continued incubation for 3 hours. At this time, the compound concentration is 3,000, 1,000, 300, 100, 30, 10, 3, 1, 0.3, 0.1 nM. […]
After the end of incubation, use a multi-label analyzer to read HTRF excitation: 320 nm, emission: 615 nm, 665 nm; […]

[2] = system: p-ERK in AsPC-1 cells (KRAS^G12D mutation, pancreatic cancer); experiment: AsPC-1 cell p-ERK inhibition test, Experimental Example 2; settings: Homo sapiens, ASPC1, read-out: AsPC-1 p-ERK IC50 (nM)
Description: 1640 medium, penicillin/streptomycin antibiotics were purchased from Gibco, and fetal bovine serum was purchased from Biosera. CellTiter-Glo (Cell Viability Chemiluminescence Detection Reagent) reagent was purchased from Promega. AsPC-1 cell line was purchased from ATCC, Envision Multi-Tag Analyzer (PerkinElmer).
AsPC-1 (KRAS^G12D mutation, pancreatic cancer) cells were seeded in ultra-low adsorption 96-well blackwall plate, 80 μL cell suspension per well, containing 10,000 AsPC-1 cell lines from ATCC cells. Plates were incubated overnight in a carbon dioxide incubator.
The test compound was diluted 8 concentrations with a 5-fold drain, i.e., from 2 mM to 25.6 nM, and a double replicate well experiment was set up. Add 78 μL of culture medium to the intermediate plate, and transfer 2 μL of gradient diluted compound per well to the intermediate plate according to the corresponding positions. Mix well and transfer 20 μL of each well to the cell plate. […] Another cell plate was prepared, and the signal value was read as the maximum value (Max value in the equation below) on the day of dosing to participate in the data analysis.
Each 100 μL of cell viability chemiluminescence detection reagent was added to the cell plate and incubated at room temperature for 30 minutes to stabilize the luminescence signal. Use multi-label analyzer for reading. […]

SMILES	IC50 [1]	IC50 [2]
C=C1CN2CCC[C@@]2(COc2nc3c(c(N4CC5CCC(CO)(C4)N5)n2)CO[C@H](c2c(F)c(N)cc(C#CC)c2C(F)(F)F)C3)C1 (some centres unmarked) [Hydrochloride of Compound 1]	164 nM	–
C=C1CN2CCC[C@@]2(COc2nc3c(c(N4CC5CCC(C4)N5)n2)CO[C@H](c2c(F)c(N)cc(C#CCl)c2C(F)(F)F)C3)C1 [Trifluoroacetate of Compound 7]	–	24.9 nM
